{
  "source": "patent US11638401B2",
  "about": "“Methods and compositions for increasing tolerance to abiotic stress in plants” (priority 2018, dated 2023)",
  "key": {"[1]": {"tested_on": "Soybean", "experiment": "Soybean Trial 2018, field trial", "format": "in vivo", "details": "Soybean 2018, Elm City N.C.; Photon 8 g ai/A, Aminoguanidine 2 g ai/A; control 22.3; LSD 0.05 3.8", "from_the_text": "(§1) In the table below, the treatment labeled “Photon” represents a mixture of azelaic, sebacic, undecanedioic, acids. It is predominantly azelaic acid, and equal parts of the remaining two major constituents. Abbreviations: ai=active ingredient, A=acre, ha=hectare, lbs=pounds, MT=metric ton • Soybean Trial 2018 • Elm City N.C. • Randomized complete block with 5 replicates"}, "[2]": {"tested_on": "Soybean", "experiment": "Soybean - Two Year Summary, field trials", "format": "in vivo", "details": "Photon 8 g ai/A, Aminoguanidine 2 g ai/A, control 38.9, LSD 0.01 3.9", "from_the_text": "as §1"}},
  "data": [
    {"smiles": "N=C(N)NN", "note": "[Aminoguanidine, aminoguanidine]", "values": [
      {"measurement": "Yield (bu/A)", "setting": "[1]", "value": 24.3, "unit": "bu/A"},
      {"measurement": "Yield (bu/A)", "setting": "[2]", "value": 42.5, "unit": "bu/A"}
    ]}
  ]
}
